Legend:
C1 dorsal horn cells = assay: Annexin fluorescence histochemistry after ibotenic acid pledget on C1-C2 spinal segments; assay type: in vivo, rats; conditions: pledget on C1-C2 for 2 hrs, after 14-16 hrs
Excerpt: After 14-16 hrs, rats were perfused with fixative and the medulla, C1-2, C3-5 segments were processed for annexin fluorescence histochemistry. Photomicrographs are from the C1 dorsal horn and the gray matter is outlined. […] White arrows point to unlabeled (black) cells in the dorsal horn. […] Annexin binding indicates cells with energy impairment and/or undergoing apotosis. Annexin belongs to a family of proteins that bind acidic phospholipids, particularly phosphotidylserine (PS). PS is assymetically distributed in the cell membrane by the enzyme, aminophospholipid translocase. Following energy impairment, PS distributes to the outer cell leaflet and annexin binding illustrates cells with PS on the outside of the cell.
Chemical disruption of the C1-C2 spinal neurons alters the effects of stimulation of the cardiac afferent input on the regulation of information processing in the cervical and thoracic spinal cord. In order to produce chemical disruption of cells, ibotenic acid was chosen because it is an excitotoxin that has been used effectively in previous studies. Ibotenic acid is a structurally rigid glutamate analog that destroys neuronal perikarya, but spares axons and non-neuronal cells. After ibotenic acid is injected into a nucleus or applied to the surface of the spinal cord, the cells in the region are initially excited and then enter a phase of depolarization block. […]

C1-C2 spinal neurons = assay: Vagal inhibition of T3 neuron after ibotenic acid on dorsal C1-C2 spinal cord; assay type: in vivo; conditions: approximately 20 min after ibotenic acid was placed on the spinal cord
Excerpt: FIGS. […] Electrical stimulation of the left cervical vagus (A: LCVS; {30 V, 0.1 ms} ipsilateral to the cell) right cervical vagus (B; RCVS; contralateral) at different frequencies. Vagal stimulation reduced the discharge rate of the evoked response to noxious stimulation of the cardiac afferents intrapericardial injections of bradykinin (C). IA; ibotenic acid. The short horizontal bars represent the period of vagal stimulation, the long horizontal bar represents the bradykinin injection and the numbers indicate the frequencies tested.
Chemical disruption of the C1-C2 spinal neurons alters the effects of stimulation of the cardiac afferent input on the regulation of information processing in the cervical and thoracic spinal cord. In order to produce chemical disruption of cells, ibotenic acid was chosen because it is an excitotoxin that has been used effectively in previous studies. Ibotenic acid is a structurally rigid glutamate analog that destroys neuronal perikarya, but spares axons and non-neuronal cells. After ibotenic acid is injected into a nucleus or applied to the surface of the spinal cord, the cells in the region are initially excited and then enter a phase of depolarization block. […] The advantage of this methodology is that the neuronal relays in the C1-C2 segments can be disrupted without interrupting the axons that pass through this region. […]

N[C@H](C(=O)O)c1cc(=O)[nH]o1 [ibotenic acid]
annexin staining of cells (C1 dorsal horn cells): many annexin positive
inhibitory effects to vagal stimulation (C1-C2 spinal neurons): eliminated

Reference: patent US9072901B2, “Cardiac neuromodulation and methods of using same” (The Board of Regents of the University of Oklahoma, priority 2001, dated 2015)
